Assay results: paper PMC12249905, “Substituted Triazole-3,5-Diamine Compounds as Novel Human Topoisomerase III Beta Inhibitors” (International Journal of Molecular Sciences, 2025)

Key:
[1] = molecular target: T1, human TOP3B (Homo sapiens, UniProt O95985); assay: Assay of inhibition of human TOP3B relaxation activity (chloroquine gel electrophoresis, TDRD3 present); type: biochemical; conditions: for Inhibition of the DNA relaxation activity of human TOP3B: tested at up to 200 µM; for IC50: DNA relaxation, 18 nM TOP3B and TDRD3, supercoiled pBAD/Thio plasmid, 37 °C 1 h
T1 construct: GST (N); 6xHis (C); purchased Genscript (custom production); host or cells: sf9 insect cells (TOP3B); E. coli Rosetta(DE3) (TDRD3, made in house)
T1 sequence (O95985 1-862): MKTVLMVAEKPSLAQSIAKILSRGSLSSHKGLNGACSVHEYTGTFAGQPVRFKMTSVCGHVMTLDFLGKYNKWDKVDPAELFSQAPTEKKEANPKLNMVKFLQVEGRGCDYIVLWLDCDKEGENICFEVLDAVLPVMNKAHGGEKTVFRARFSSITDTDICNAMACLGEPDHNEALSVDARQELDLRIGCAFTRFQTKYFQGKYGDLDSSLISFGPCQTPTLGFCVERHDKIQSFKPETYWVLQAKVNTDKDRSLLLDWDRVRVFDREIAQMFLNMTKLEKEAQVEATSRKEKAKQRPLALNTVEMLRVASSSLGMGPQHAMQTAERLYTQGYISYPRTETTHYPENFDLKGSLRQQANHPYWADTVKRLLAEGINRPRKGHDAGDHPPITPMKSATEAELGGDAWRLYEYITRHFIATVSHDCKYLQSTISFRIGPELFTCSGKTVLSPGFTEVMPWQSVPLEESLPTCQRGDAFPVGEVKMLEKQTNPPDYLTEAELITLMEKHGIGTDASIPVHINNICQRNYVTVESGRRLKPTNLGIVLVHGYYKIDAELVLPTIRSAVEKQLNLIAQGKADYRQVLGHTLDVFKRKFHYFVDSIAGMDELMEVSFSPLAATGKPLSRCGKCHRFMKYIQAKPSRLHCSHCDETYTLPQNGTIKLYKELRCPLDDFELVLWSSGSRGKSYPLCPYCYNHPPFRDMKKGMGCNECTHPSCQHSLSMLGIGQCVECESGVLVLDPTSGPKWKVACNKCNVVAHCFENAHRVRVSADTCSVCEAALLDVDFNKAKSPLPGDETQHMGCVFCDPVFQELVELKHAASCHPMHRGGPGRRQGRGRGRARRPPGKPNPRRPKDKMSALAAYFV
Source text: Human TOP3B protein was obtained through custom production by Genscript. The coding sequence of human TOP3B was custom synthesized by Genscript and cloned into vector pFastBacGST to generate the recombinant baculovirus expressing human TOP3B protein with the N-terminal GST tag and C-terminal 6xHis tag. Following expression in sf9 insect cells, the recombinant TOP3B protein was purified to >95% homogeneity by Genscript using GST column and superdex 200 16/600G chromatography. A buffer containing 20 mM of Tris-HCl (pH 7.5), 750 mM of KCl, 10% glycerol, 1 mM of EDTA, 0.05% NP-40, and 1mM of DTT was used for storage and dilution.
The presence of the TDRD3 protein enhances the relaxation activity of human TOP3B through the direct binding of the proposed TOP3B hinge region for gate opening and closing. The human TDRD3 coding sequence was amplified by PCR from the TDRD3 clone in pEGFP-C1 [45] using a forward primer of 5′-[…]-3′ and a reverse primer of 5′-[…]-3′. The amplified TDRD3 gene was joined with the backbone of the DHFR-His plasmid (from New England BioLab) using the NEB HiFi assembly kit with the forward primer 5′-[…]-3′ and the reverse primer 5′-[…]-3′ so that the TDRD3 gene replaced the DHFR gene. The his-tagged TDRD3 protein was expressed from the T7 promoter in E. coli Rosetta(DE3) cells and purified using the HisPur Ni-NTA spin column from Thermo Fisher according to the manufacturer’s protocol.
Inhibition of the relaxation activity of human TOP3B was carried out in a reaction buffer containing 20 mM of HEPES-KOH, with a pH of 7.5, 1 mM of DTT, 0.1 mg/mL of BSA, and 5 mM of MgCl2. TOP3B and TDRD3 were added at 18 nM to each reaction mix followed by 0.5 μL of DMSO or indicated concentrations of compounds, and lastly by the addition of 500 ng of supercoiled pBAD/Thio plasmid DNA (purified by CsCl gradient centrifugation) for a final reaction volume of 20 μL. After mixing by gentle vortex, the reaction mixtures were spun down and incubated at 37 °C for 1 h. The relaxation reactions were terminated by the addition of 1 μL of 10% SDS and 2 μL of 800 units/mL of proteinase K (New England Biolabs) and incubated at 45 °C for 30 min. Following the addition of 5 μL of stop solution (50 mM of EDTA, 50% glycerol, and 0.5% v/v bromophenol blue), the reaction products were analyzed in a 1% agarose gel with TAE (40 mM of Tris-acetate, pH 8.0, 2 mM of EDTA) buffer containing 5 μg/mL of chloroquine at 25 V (1 V/cm) for 18 h. Gels were washed with TAE buffer for 1 h and 50 mM of NaCl for 1 h to remove the chloroquine, and finally with deionized water for 30 min. Gels were stained for 2 h with 1 μg/mL of SYBR Gold solution (Thermo Fischer Scientific, Waltham, MA, USA). Gels were destained with deionized water for 15 min and photographed over UV light with the AlphaImager system. The amount of the relaxed DNA produced by TOP3B in each reaction was quantified using the AlphaImager software version 1.5.0 to calculate the percentage of inhibition versus the DMSO control.

[2] = Cell viability of human dermal fibroblasts (CellTiter-Blue); type: cell-based; conditions: primary human dermal fibroblasts (HdFa), 100 µM (highest concentration), 24 h exposure, relative to untreated control
Procedure: Human dermal fibroblasts (HdFa; PCS-210-012™, ATCC, Manassas, VA, USA) were cultured in Dulbecco’s Modified Eagle Medium (DMEM; supplemented with GlutaMAX™ and sodium pyruvate; Gibco, Waltham, MA, USA), containing 10% fetal bovine serum (FBS; Gibco) and 1% penicillin-streptomycin (10,000 U/mL; Gibco). Cells were maintained in T75 tissue culture flasks (Thermo Scientific Nunc™, Roskilde, Denmark) under standard incubation conditions (37 °C, 5% CO2, humidified atmosphere). Upon reaching confluency, cells were harvested and seeded into black-walled, clear-bottom, 96-well plates at a density of 5000 cells/well in 100 µL of complete growth medium. Following overnight incubation, the cells reached approximately 80–90% confluence. […]
After 24 h of compound exposure, 20 µL of CellTiter-Blue® reagent (Promega, WI, USA) was added to each well. Plates were incubated for an additional 2 h at 37 °C, after which the fluorescence of the metabolized resorufin product was measured using a Synergy Multi-Mode Plate Reader (BioTek Instruments, Winooski, VT, USA) at an excitation wavelength of 560 nm and an emission wavelength of 590 nm. Cellular viability in response to the test compounds was expressed as a percentage relative to the untreated control group.(1) Cell viability (%)=Fluorescenceintensityoftreatedcells/Fluorescenceintensityofcontrolcells×[…]

[3] = molecular target: T2, human TOP1 (Homo sapiens, UniProt P11387); assay: Assay of inhibition of human TOP1 relaxation activity (gel electrophoresis); type: biochemical; conditions: DNA relaxation, 1 unit enzyme, supercoiled pBAD/Thio plasmid, 37 °C 30 min
T2 construct: made in house; host or cells: Saccharomyces cerevisiae strain EKY3
T2 sequence (P11387 1-765): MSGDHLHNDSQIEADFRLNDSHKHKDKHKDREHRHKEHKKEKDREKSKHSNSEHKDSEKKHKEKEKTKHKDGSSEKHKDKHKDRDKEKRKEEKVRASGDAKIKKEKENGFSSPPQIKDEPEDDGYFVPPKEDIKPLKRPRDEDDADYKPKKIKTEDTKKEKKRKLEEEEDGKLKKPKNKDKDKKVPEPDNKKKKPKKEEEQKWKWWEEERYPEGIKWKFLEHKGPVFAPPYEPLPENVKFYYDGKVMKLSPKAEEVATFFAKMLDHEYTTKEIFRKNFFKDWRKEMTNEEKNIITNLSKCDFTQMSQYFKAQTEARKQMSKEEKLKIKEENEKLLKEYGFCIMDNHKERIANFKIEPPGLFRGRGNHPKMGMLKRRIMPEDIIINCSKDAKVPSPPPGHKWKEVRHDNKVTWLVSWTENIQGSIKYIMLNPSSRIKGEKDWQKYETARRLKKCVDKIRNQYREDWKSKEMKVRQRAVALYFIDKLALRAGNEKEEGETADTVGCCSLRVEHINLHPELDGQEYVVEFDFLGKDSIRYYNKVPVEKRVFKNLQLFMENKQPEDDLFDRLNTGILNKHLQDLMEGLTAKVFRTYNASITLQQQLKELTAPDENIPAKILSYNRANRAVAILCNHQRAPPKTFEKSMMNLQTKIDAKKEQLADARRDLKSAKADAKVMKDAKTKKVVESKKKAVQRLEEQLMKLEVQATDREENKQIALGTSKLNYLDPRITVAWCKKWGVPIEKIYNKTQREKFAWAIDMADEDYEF
Procedure: Recombinant human TOP1 was expressed from clone pYES2-TOP1 transformed into Saccharomyces cerevisiae strain EKY3 [46]. Inhibition of TOP1 relaxation activity was assayed as described in a 20 µL reaction containing 200 ng of supercoiled pBAD/Thio plasmid DNA and 1 unit of enzyme in 10 mM of Tris-HCl, with a pH of 8.0, 1 mM of EDTA, 150 mM of NaCl, 0.1 mM of spermidine, 0.1 mg/mL of BSA, and 5% glycerol. The reactions were incubated at 37 °C for 30 min before the addition of 4 µL of stop solution (6% SDS, 0.6% (wv/v)) bromophenol blue and 40% glycerol. Gel electrophoresis for the separation of the supercoiled DNA substrate from the relaxed DNA was conducted in 1% agarose gel with TAE buffer for 20 h at 25 V. The DNA was stained with ethidium bromide for an hour and then soaked in water for 5 min. Gels were photographed over UV light with the AlphaImager system. The amount of the supercoiled DNA substrate remaining in each reaction was quantified using the AlphaImager software to calculate the percentage of inhibition versus the DMSO control.

SMILES | Inhibition of the DNA relaxation activity of human TOP3B [1] | further results
CNC(=O)c1cc(Oc2ccc(NC(=O)Nc3cc(C(C)(C)C)nn3-c3ccc4ncccc4c3)c(F)c2)ccn1 [Rebastinib] | Inhibition was observed only for bemcentinib | –
Cc1cn(-c2cc(NC(=O)c3ccc(C)c(Nc4nccc(-c5cccnc5)n4)c3)cc(C(F)(F)F)c2)cn1 [Nilotinib] | Inhibition was observed only for bemcentinib | –
CC(C)[C@H](N)C(=O)n1nc(Nc2ccccc2/C=C/C(N)=O)nc1N [2710-33-343] | – | viability at 24 h, 100 µM [2]: ~60%
Cc1cc(Nc2ncnc3ccc(NC4=NC(C)(C)CO4)cc23)ccc1Oc1ccn2ncnc2c1 [Tucatinib] | Inhibition was observed only for bemcentinib | –
CC(C)C[C@H](N)C(=O)n1nc(Nc2ccccc2/C=C/C(N)=O)nc1N [2710-34-357] | – | IC50 [1]: 34.5 µM; IC50 [3]: 31.9 µM
Nc1nc(Nc2ccc3c(c2)CC[C@@H](N2CCCC2)CC3)nn1-c1cc2c(nn1)-c1ccccc1CCC2 [Bemcentinib] | Inhibition was observed only for bemcentinib | IC50 [1]: 34.3 µM; Selectivity for inhibition of TOP3B versus TOP1 ([1]; comparison of IC50 values TOP3B vs TOP1): inhibits TOP3B with greater potency than TOP1; IC50 [3]: 75.8 µM
CN1CCN(C2CCN(C(=O)Nc3cc(Oc4ccc(NC(=O)C5(C(=O)Nc6ccc(F)cc6)CC5)c(F)c4)ccn3)CC2)CC1 [Golvatinib] | Inhibition was observed only for bemcentinib | –
Cc1cn(-c2cc(NC(=O)c3ccc(C)c(Nc4nccc(-c5cnccn5)n4)c3)cc(C(F)(F)F)c2)cn1 [Radotinib] | Inhibition was observed only for bemcentinib | –
